Results published in US10822383B2, “Polypeptides capable of producing glucans having alpha-1,2 branches and use of the same” (E I DU PONT DE NEMOURS AND COMPANY, priority 2015, dated 2020).

B1: GTFJ18T1: N-terminal-truncated form of GTFJ18 (first 1664 residues removed), SEQ ID NO:27 (protein)
chain: VKGDKRTIDGVLYTFDKESGERKGLDSISVLPTNGQYTTDKAQNWYYQVDGENVKGLYTNNDGQLRYFDLTTGVQTKGNFVTIGNDTYYFTKEQGDGQIVSEVVSGHYGTVQLSDNSSAWVYRGANDQILKGLQNINGRLQYFDLTTGAQLKGGAANYDGNLYYFESSDGNLVSKIQQSYSTGNYVTDGDKVTYADEQNNQVTGLALIDDQLQYFDPSDGRQVKNEQVIVDGVTYYFDKNGNGQYLFTNTATMSTNEFAKHSAAYSNDSSSFKNTIDGFLTADTWYRPKDILENGQTWVVSSTNDVRPLITVWWLNKDVQVNYSNFMKQNGLLDTSSQFNLQSDQYDLNVAAQKVQVAIEKRISKEKSTDWLKDLLFEAHEDTPSFVKQQFIWNKDSEYQGQGDAWFQGGYLKYGNNELTPTTNSDYRESGNTLDFLLANDVDNSNPAVQAENLNWLHYLMNFGTITANDDDANFDSIRIDAVDFIDNDAIQRTYDYMRDAYKVDASEDNANKHISLVEAGLDAGTSTIKSDALVESNFREAATLSLANQSGENSSLTNMLQDIDGGQIIADHANNATENESTPNYSIIHAHDKGIQEKVGAAITDVTGADWTNFTDDQLKEGLAAYYQDQRSTNKKYNIYNLPSIYALMLTNKDTVPRVYYGDMYQDDGQYMEKQSIYYDAIVSLMNTRKSYVSGGQTMDVDEHGLLKSVRFGKDAMTASDLGTNETRTEGVGVLVGNDSSLKLNDSDTVTLEMGAAHKNQKYRAALLTTSDGIVTYDADNDAPTIWTDDRGTLTFSNKEIAGQDYTSVQGFANSQVSGYLAVWVPVGASDDQDVRTAALTDANLDDKVLHSNAALDSNLIYEGFSNFQPKATTNDELTNVVIAKNANLFEKWGITSFEMAPQYRSSGDHTFLDSTIDNGYAFTDRYDLGFETPTKYGTDKDLRTAIKALHQSNMQVMADVVDNQVYNLSGQEVVSASRAGVYGNDVSTGFGTQLYAVNSVGGGKYQAQYGGEYLNELKQQYPDLFEAKTYDYWVKNYSNDGSDPYYTLSQNTRKDMPSSEVIKQWSAKYMNGTNVLGNGMGYVLKDWNTGEYFKIGEKNADFITN
modifications: Leuconostoc mesenteroides

How the values were obtained:
[1] = Alpha-1,2 branching reaction with GTF9905 on products of the GTF8117 reaction; assay type: biochemical; details: 1.13 U/mL GTF9905, 175 g/L sucrose, 30° C., 76.2 h
Method: First, a reaction was performed to prepare glucan that was used in the second part of this Example as a substrate for 1,2-branching enzyme. A reaction mixture (20 mL) comprised of sucrose (488 g/L) and GTF8117 (Example 4, 9.4 U/mL) was adjusted to pH 5.5 with 6.0 N hydrochloric acid and stirred at 47° C. Aliquots were withdrawn at predetermined times and quenched by heating at 90° C. for 20 min. The resulting heat-treated aliquots were centrifuged and the supernatants analyzed by HPLC to determine the concentration of sucrose, glucose, fructose, leucrose, oligosaccharides and polysaccharides. After 6 h, the reaction mixture was heated to 90° C. for 30 minutes, and an aliquot of the heat-treated reaction mixture was centrifuged and the resulting supernatant analyzed for soluble monosaccharides, oligosaccharides and polysaccharides (DP8+) (Table 1). The DP8+ polysaccharides appeared to contain about 100% alpha-1,6 linkages.
A second reaction was then performed to conduct alpha-1,2 branching from the products of the first reaction. […] The resulting heat-treated aliquots were centrifuged and the supernatants analyzed by HPLC to determine the concentration of sucrose, glucose, fructose, leucrose, oligosaccharides and polysaccharides. […]

[2] = Alpha-1,2 branching activity of GTFJ18 / GTFJ18T1 on a glucan backbone (NMR linkage profile of product); assay type: biochemical; details: for alpha-1,2 linkages in the product of the branching reaction / alpha-1,6 linkages in the product of the branching reaction: 10% (v/v) crude cell extract, 40 g/L sucrose, 22 hours, NMR
Source text: The alpha-1,2 branching activities of each enzyme (GTFJ18 or GTFJ18T1) were individually tested on the glucan product of the glucosyltransferase, GTF5604, which is derived from Streptococcus criceti HS-6 (GENBANK® Acc. No. WP_004226213.1, old gi: 357235604) and disclosed in International Pat. Appl. Publ. No. WO2015/183714 (also referred to therein as SG1018 glucosyltransferase or GtfHS6). GTF5604 (SEQ ID NO:33) has 1338 amino acids with the N-terminal 36 amino acids deduced as its signal peptide by the SignalP 4.0 program. The native nucleotide sequence (positions 1289627-1293643 of GENBANK Acc. No. NZ_AEUV02000002.1) encoding full length GTF5604 (SEQ ID NO:33) including its native signal peptide was synthesized by GenScript and cloned into the SpeI and HindIII sites of the replicative Bacillus expression plasmid pHYT (Takara Bio Inc., Otsu, Japan) under the B. subtilis aprE promoter. The construct was first transformed into E. coli DH10B and selected on ampicillin (100 μg/mL) plates. The confirmed clone, pDCQ918, was then transformed into Bacillus subtilis strain BG6006 (amyE::xylRPxylAcomK-ermC, degUHy32, oppA, ΔspoIIE3501, ΔaprE, ΔnprE, Δepr, ΔispA, Δbpr, Δvpr, ΔwprA, Δmpr-ybfJ, ΔnprB) and selected on tetracycline (12.5 μg/mL) plates, after which the transformed strain, termed as SG1018, was grown in LB containing 10 μg/mL tetracycline first, followed by subculturing into Grant's II medium containing 12.5 μg/mL tetracycline and growth at 37° C. for 2-3 days. The cultures were spun at 15,000×g for 30 min at 4° C. and the supernatant was filtered through 0.22-μm filters. A glucan synthesis reaction was set up containing 10% (v/v) of the SG1018 supernatant with 100 g/L sucrose, 10 mM sodium citrate pH 5 and 1 mM CaCl2. […] The glucan synthesis reaction was subjected to heat inactivation at 95° C. for 30 min.
A branching reaction was set up with 70% (v/v) of the heat-inactivated glucan synthesis reaction. The enzyme being tested for branching activity off of the above glucan product, GTFJ18 or GTFJ18T1, was provided as 10% (v/v) of the above-prepared crude cell extract from EC0059 or EC0059T1, respectively, with 40 g/L sucrose. Each branching reaction was incubated at 37° C. or 30° C. for 22 hours and the products were analyzed by HPLC for sucrose consumption and NMR for linkage profile.
NMR data were acquired on an Agilent DD2 spectrometer (Agilent Technologies, Inc., Santa Clara, Calif.) operating at 500 MHz for ^1H using a 5-mm cryogenic triple-resonance pulsed-field gradient probe. Water suppression was obtained by carefully placing the observe transmitter frequency on resonance for the residual water signal in a “presat” experiment, and then using the first slice of a NOESY experiment with a full phase cycle (multiple of 32) and a mix time of 10 ms. One-dimensional ^1H spectra were acquired with a spectral width of 6410 Hz, acquisition time of 5.1 s, 65536 data points, 4 s pre-saturation and a 90-degree observe pulse. Signal averaging typically involved accumulation of 64 scans. Sample temperature was maintained at 25° C.
Liquid samples were prepared by adding either 50 or 100 μL of completed branching reactions to a 5-mm NMR tube along with 60 μL of D2O containing 12.4 mM 4,4-dimethyl-4-silapentane-1-sulfonic acid sodium salt (DSS) as an internal chemical shift reference, and the balance (450 or 400 μL) of D2O for a total volume of […]. The DSS methyl resonance was set to 0 ppm. […]

Molecule | alpha-1,2 branching activity (in words) [1] | alpha-1,2 linkages in the product of the branching reaction [2] [%] | alpha-1,6 linkages in the product of the branching reaction [2] [%] | alpha-1,2 branching activity (in words) ([2]; compared to full length GTFJ18)
GTF9905: Fructobacillus tropaeoli glucosyltransferase, SEQ ID NO:4, mature form positions 36-1672 | significant alpha-1,2 branching activity |  |  | 
GTFJ18: full length glucosyltransferase from Leuconostoc mesenteroides J18, SEQ ID NO:1 (identical to SEQ ID NO:13) |  | 0.6 | 97 | 
B1 |  | 18 | 82 | much higher alpha-1,2 branching activity
